Experimental data published in EP1222921B1, “Pharmaceutical compositions of tizoxanide and/or nitazoxanide” (Romark Laboratories, L.C., priority 1997, dated 1998).
≈ marks a conversion by molar mass, not a printed value. Entries after “also recorded” stand apart in the source; their conditions may differ. Where two headings read alike, the source gives them in different places.

Columns and labels:
[1] = system: MRC5 fibroblasts; assay: Toxicity on the cell monolayer in T. gondii cultures; settings: 72 hours
[2] = system: Fasciola hepatica; assay: In vitro culture of mature flukes
Protocol: The in vitro efficacy of nitazoxanide and desacetyl-nitazoxanide was tested against Fasciola hepatica. Mature F. hepatica were recovered from the bile ducts of 3 calf livers condemned due to fasciolosis at the Louisiana Veterinary Medical Diagnostic Laboratory at the Hardy's Meat […], Bunkie, LA. Flukes were washed in sterile saline for 1 hour and transferred to sterile saline or RPMI (pH 7.4) for an additional 3 hours. Flukes were then held in sterile RPMI-rabbit serum (50:50 v/v) or sterile RPMI (pH 7.4) overnight at 37°C with 5% CO2. In vitro culture (37°C, 5% CO2) was done according to a modification of the method of Ibarra and Jenkins ([…]. 70:655-661, 1984). […] Only flukes that had normal activity and morphology were used. […] Two control flukes were included in each replicate, […] and one in unmedicated culture media […]. Flukes were examined for the effects of drug treatment as evidenced by death, motility disturbances or morpholgic changes as compared to untreated control flukes, using a backlighted panel and a lighted 3X magnifying lens.

[3] = system: C. parvum oocysts; assay: Intact C. parvum oocyst assay (Example III), immunofluorescence; format: cell-based, Cryptosporidium parvum; settings: for Parasite - Mean parasite count/field (12 fields analyzed) / %Inhib - Percent inhibitation of parasite infection: 48 hr.; for %Inhib - Percent inhibitation of parasite infection: listed as New NTZdes
Protocol: Each concentration of nitazoxanide and the media controls contained 0.025% DMSO as a constant. The experiment used a cell culture of MDBKF5D2 Cells grown in 7 mm chambers, and as Cryptosporidium parvum: GCH1 oocysts, 5 X 10^4 per well, and was conducted to compare paromomycin (positive control) against nitazoxanide (experimental drug). […] 5 x 104 C. parvum oocysts per well are incubated in the pre-mentioned concentrations of nitazoxanide at 37°C (8% CO2) on confluent MDBKF5D2 cell monolayers. The level of infection in each well was determined and computer analyzed by an immunofluorescence assay at 48 hours. […] (Medium control count - Drug test count)/(Medium control count)x 100 [formula] Conc. - µg/ml; Parasite - Mean parasite count/field (12 fields analyzed); %Inhib - Percent inhibitation of parasite infection; % Tox- Percent toxicity to cells by the drug.

[4] = system: RH strain of Toxoplasma gondii; assay: Toxoplasma gondii growth in MRC5 fibroblast cultures, ELISA; format: cell-based
[5] = system: M. intracellular ATCC 13950; assay: MIC by standard agar dilution; format: cell-based, Mycobacterium intracellular; settings: Mycobacterium, ATCC13950, 504 h, Middlebrook 7H11 agar, 3 weeks
[6] = system: MDBKF5D2 cell monolayers; assay: Toxicity testing assay (Example III), MTS/PMS; format: cell-based
Protocol: 200µl of medium containing nitazoxanide solution at the pre-mentioned concentrations and the proper controls were introduced into two wells of a 96 well plate containing confluent MDBKFD2 cell monolayers and two wells without monolayers. […] The plate was returned to the incubator in the dark to develop for 2 hours. At 2 hours, 100 µl of each supernatant was transferred to a new microtiter plate and read in the ELISA reader at 490 nm. Results were recorded and analyzed. […] (OD medium - OD drug x 100)/(OD medium) [formula] […]

[7] = system: C. parvum oocysts; assay: Intact C. parvum oocyst assay (Example II), immunofluorescence; format: cell-based, Cryptosporidium parvum; settings: 2 mg/ml; for inhibition at 2000 µg/mL: Cryptosporidium parvum, read-out: Percent Inhibition
Protocol: Nitazoxanide was dissolved in sterile dimethylsulfoxide (DMSO) and tested against intact C. parvum oocysts infected cell monolayers at concentrations of 100 µg/ml, 10 µg/ml/l µg/ml and 0.1 µg/ml. A second trail was performed which tested nitazoxanide at the additional concentrations of 20, 2, 0.2 and 0.02 µg/ml. These concentrations were achieved by serial dilutions with complete DMEM medium to yield a final DMSO concentration of 0.5%. The medium control also contacted 0.5% DMSO.
The experiment used a cell culture of MDBKF5D2 Cells grown in 7 mm chambers, and as Cryptosporidium parvum: GCH1 oocysts, 5 X 10^4 per well, and was conducted to compare paromomycin (positive control) against nitazoxanide (experimental drug). Materials included Immune Anti-Cryptosporidium parvum Sporozoite Rabbit Serum (0.1%) and Fluorescein-Conjugated Goat Anti-Rabbit Antibody (1%).
5 x 104 C. parvum oocysts per well were incubated in nitazoxanide (100, 20, 10, 2, 1, 0.2, 0.1 and 0.02 µg/ml) at 37°C (8% CO2) on confluent MDBKF5D2 cell monolayers. The level of infection in each well was determined and analyzed by an immunofluorescence assay at 24 to 48 hours. Percent Inhibition was calculated by subtracting the mean parasite count/10 field in the drug test wells from the mean parasite count/10 fields in the medium control (no drug), dividing by the medium control count, and then multiplying by 100. (Medium control count - Drug test count)/(Medium control count)x 100 [formula]

[8] = system: MDBKF5D2 cell monolayers; format: cell-based; settings: cattle, 2 mg/ml
Protocol: The drug was incubated on the monolayers at 37°C and 8% CO2. At 24 hours (trial 1) and 48 hours (trial 2), MTS (Owen's solution) the PMS were added to each well at concentrations of 333 µg/ml and 25 µM respectively. The plate was returned to the incubator in the dark to develop for two hours. At two hours, 100 µl of each supernatant was transferred to a new microtiter plate and read in the ELISA reader at 490nm. Results were recorded and analyzed. Percent toxicity was calculated by subtracting the mean optical density (OD) of the drug supernatants from the mean optical density (OD) of the medium control supernatants (no drug), dividing by the OD of the medium control and multiplying by 100. (OD medium - OD drug)/(OD medium)x 100 [formula]

[9] = 48 hr., Conc 0.01 µg/ml, 0.025% DMSO
[10] = 48 hr., Conc 0.1 µg/ml, 0.025% DMSO
[11] = 48 hr., Conc 1 µg/ml, 0.025% DMSO
[12] = 48 hr., Conc 10 µg/ml, 0.025% DMSO

Structure (SMILES): O=C(Nc1ncc([N+](=O)[O-])s1)c1ccccc1O [Tizoxanide, desacetyl-nitazoxanide]
- concentrations with marked toxicity on the cell monolayer [1]: ≥ 2500 ng/mL
- effects on flukes (death, motility disturbances) ([2]; 1 µg treatment, listed as D-NTZ): Some slowing of activity was noted in the 1 µg group at 42-74 hours; also recorded: only 3 active and one moribund fluke remained alive at 91 hours; also recorded: at 115 hours only one sluggish fluke remained
- effects on flukes (death, motility disturbances) ([2]; 3 µg treatment, listed as D-NTZ): Reduced activity in some individuals was seen by 24 hours in the 5 µg and 3 µg groups with a somewhat slower onset at 3 µg; also recorded: all were dead in the 3 and 5 µg treatment wells by 50 hours except one sluggish fluke in each group
- effects on flukes (death, motility disturbances) ([2]; 5 µg treatment, listed as D-NTZ): Reduced activity in some individuals was seen by 24 hours; also recorded: all were dead in the 3 and 5 µg treatment wells by 50 hours except one sluggish fluke in each group
- effects on flukes (death, motility disturbances) ([2]; 10 µg treatment, listed as D-NTZ): reduced activity was noted at 1, 3 and 4 hours; also recorded: all were moribund or dead by 7 hours
- effects on flukes (death, motility disturbances) ([2]; 25 µg treatment, listed as D-NTZ): Four of 7 flukes in the 25 µg treatment were moribund, two were active, and one was sluggish within the first hour; also recorded: all were dead except two sluggish flukes by three hours; also recorded: only one sluggish fluke remained alive after four hours
- effects on flukes (death, motility disturbances) ([2]; 50 µg treatment): moribund or dead within one hour
- effects on flukes (death, motility disturbances) ([2]; 100 µg treatment): moribund or dead within one hour
- time to rapid fluke death ([2]; in vitro medication rate 10µg): 6 to 7 h
- time to rapid fluke death ([2]; in vitro medication rate 25 µg): ≤ 4 h
- time to rapid fluke death ([2]; in vitro medication rates of >50 µg): ≤ 1 h
- Parasite - Mean parasite count/field (12 fields analyzed) ([3]; Conc 0.01 µg/ml, 0.025% DMSO): 749.33
- Parasite - Mean parasite count/field (12 fields analyzed) ([3]; Conc 0.1 µg/ml, 0.025% DMSO): 649.86
- Parasite - Mean parasite count/field (12 fields analyzed) ([3]; Conc 1 µg/ml, 0.025% DMSO): 39.92
- %Inhib - Percent inhibitation of parasite infection ([3]; Conc 1 µg/ml, 0.025% DMSO): 93.65%
- Parasite - Mean parasite count/field (12 fields analyzed) ([3]; Conc 10 µg/ml, 0.025% DMSO): 13.75
- %Inhib - Percent inhibitation of parasite infection ([3]; Conc 10 µg/ml, 0.025% DMSO): 97.81%
- inhibition at 0.01 µg/mL ([3]; Cryptosporidium parvum, 48 h, Conc 0.01 µg/ml, 0.025% DMSO, read-out: %Inhib - Percent inhibitation of parasite infection): ≤ 0%
- inhibition at 0.1 µg/mL ([3]; Cryptosporidium parvum, 48 h, Conc 0.1 µg/ml, 0.025% DMSO, read-out: %Inhib - Percent inhibitation of parasite infection): ≤ 0%
- inhibition at 1 µg/mL ([3]; Cryptosporidium parvum, 48 h, Conc 1 µg/ml, 0.025% DMSO, read-out: %Inhib - Percent inhibitation of parasite infection): 94%
- inhibition at 10 µg/mL ([3]; Cryptosporidium parvum, 48 h, Conc 10 µg/ml, 0.025% DMSO, read-out: %Inhib - Percent inhibitation of parasite infection): 98%
- concentration with significant effect (inhibition) ([4]; 72 hours): ≥ 0.6 mg/L
- IC50 ([4]; Toxoplasma gondii, MRC5, 72 hours, estimated from regression analysis, read-out: 50% inhibitory concentration): 1.2 µg/mL (≈ 4.52 µM)
- concentrations at which a marked inhibition of Toxoplasma growth could be observed ([4]; alteration of the parasitophorous vacuole, no marked alteration of the parasite itself): approximately 1.2 mg/L
- MIC [5]: 4 µg/mL (≈ 15.1 µM)
- %Tox - Percent toxicity to cells by the drug [6, 9]: 4.36%
- Score (cytotoxicity score) [6, 9]: 0 (0.5% toxicity = 0)
- Tox/OD ([6]; 48 hr., Conc 0.01 µg/ml, 0.025% DMSO, OD at 490 nm): 1.721
- %Tox - Percent toxicity to cells by the drug [6, 10]: 16.29%
- Score (cytotoxicity score) [6, 10]: 1 (6-25% toxicity = 1)
- Tox/OD ([6]; 48 hr., Conc 0.1 µg/ml, 0.025% DMSO, OD at 490 nm): 1.506
- %Tox - Percent toxicity to cells by the drug [6, 11]: 4.97%
- Score (cytotoxicity score) [6, 11]: 0 (0.5% toxicity = 0)
- Tox/OD ([6]; 48 hr., Conc 1 µg/ml, 0.025% DMSO, OD at 490 nm): 1.710
- %Tox - Percent toxicity to cells by the drug [6, 12]: 81.27%
- Score (cytotoxicity score) [6, 12]: 4 (76-100% toxicity =- 4)
- Tox/OD ([6]; 48 hr., Conc 10 µg/ml, 0.025% DMSO, OD at 490 nm): .337

Structure (SMILES): NC[C@@H]1O[C@H](O[C@H]2[C@@H](O)[C@H](O[C@@H]3[C@@H](O)[C@H](N)C[C@H](N)[C@H]3O[C@H]3O[C@H](CO)[C@@H](O)[C@H](O)[C@H]3N)O[C@@H]2CO)[C@H](N)[C@@H](O)[C@@H]1O [Paromomycin, reference compound]
- inhibition at 2000 µg/mL ([7]; Trial 1: 24 hrs): 51%
- inhibition at 2000 µg/mL ([7]; Trial 2: 48 hrs): 74%
- Mean (+ SD) Parasite Count/10 Fields ([7]; Trial 1: 24 hrs): 482(±47.1)
- Mean (+ SD) Parasite Count/10 Fields ([7]; Trial 2: 48 hrs): 580(+33.42)
- Parasite - Mean parasite count/field (12 fields analyzed) ([3]; Conc 2000 µg/ml, aqueous media): 115.75
- inhibition at 2000 µg/mL ([3]; Cryptosporidium parvum, 48 h, Conc 2000 µg/ml, aqueous media, read-out: %Inhib - Percent inhibitation of parasite infection): 83%
- inhibition at 2000 µg/mL ([3]; Cryptosporidium parvum, concentration of 2,000 µg/ml, positive control, Examples II and III, read-out: inhibition (range over the experiments)): 51 to 83%
- times less effective (than nitazoxanide) ([3]; same experimental condition, positive control): 2,000 times
- Percent Toxicity ([8]; 24 h): 23.8%
- Percent Toxicity ([8]; 48 h): 40.8%
- %Tox - Percent toxicity to cells by the drug ([6]; cattle, 48 h, 2000 µg/ml): 39.79%
- Tox/OD ([6]; cattle, 48 h, 2000 µg/ml): 1.219
